This note sets out measurements from ChEMBL document CHEMBL5356994, “Synthesis, biological and molecular modelling for 1,3,4-thiadiazole sulfonyl thioureas: bacterial and fungal activity” (RSC Med Chem, 2023).

In brackets after ≈: the same amount, converted by molar mass.

The subject of one test is Phytophthora infestans. Briefly: Antifungal activity against Phytophthora infestans assessed as inhibition of fungal growth incubated for 5 days by poison plate technique. Particulars: 120 h. Type of test: functional, organism-based.
Another test relates to Bacillus subtilis. Briefly: Antibacterial activity against Bacillus subtilis assessed as inhibition of bacterial growth incubated for 18 to 20 hrs by microbroth dilution method. Type of test: functional. Particulars: time 18-20 hrs. Background: Dilution methods test growth across graded concentrations, often in twofold steps.
A further test concerns Clostridioides difficile. Briefly: Antibacterial activity against Clostridium difficile assessed as inhibition of bacterial growth incubated for 18 to 20 hrs by microbroth dilution method. Particulars: time 18-20 hrs. The class given is functional.
Test [1] has as its system Staphylococcus aureus. Briefly: Antibacterial activity against Staphylococcus aureus assessed as inhibition of bacterial growth incubated for 18 to 20 hrs by microbroth dilution method. The class given is functional. The following applies: time 18-20 hrs.
Test [2] concerns Staphylococcus epidermidis. Briefly: Antibacterial activity against Staphylococcus epidermidis assessed as inhibition of bacterial growth incubated for 18 to 20 hrs by microbroth dilution method. Particulars: time 18-20 hrs. Type of test: functional.
For another test, the system named is Streptococcus pneumoniae. Briefly: Antibacterial activity against Streptococcus pneumoniae assessed as inhibition of bacterial growth incubated for 18 to 20 hrs by microbroth dilution method. Type of test: functional. Particulars: time 18-20 hrs.
The test system of test [3] is Escherichia coli. Briefly: Antibacterial activity against Escherichia coli assessed as inhibition of bacterial growth incubated for 18 to 20 hrs by microbroth dilution method. The class given is functional. The following applies: time 18-20 hrs.
A further test deals with Klebsiella pneumoniae. Briefly: Antibacterial activity against Klebsiella pneumoniae assessed as inhibition of bacterial growth incubated for 18 to 20 hrs by microbroth dilution method. Particulars: time 18-20 hrs. Type of test: functional.
Another test deals with Pseudomonas aeruginosa. Briefly: Antibacterial activity against Pseudomonas aeruginosa assessed as inhibition of bacterial growth incubated for 18 to 20 hrs by microbroth dilution method. The class given is functional. Particulars: time 18-20 hrs.
A further test deals with Salmonella typhimurium. Briefly: Antibacterial activity against Salmonella typhimurium assessed as inhibition of bacterial growth incubated for 18 to 20 hrs by microbroth dilution method. The class given is functional, Salmonella enterica subsp. enterica serovar Typhimurium. The following applies: Salmonella enterica; time 18-20 hrs.
The subject of another test is Aspergillus niger. Briefly: Antifungal activity against Aspergillus niger assessed as inhibition of fungal growth incubated for 72 hrs by agar dilution method. Type of test: functional. For orientation: In agar dilution, organisms are placed on agar that contains the substance at set levels.
For test [4], the system named is Aspergillus flavus. Briefly: Antifungal activity against Aspergillus flavus assessed as inhibition of fungal growth incubated for 72 hrs by agar dilution method. Type of test: functional.
For test [5], the system named is Candida albicans. Briefly: Antifungal activity against Candida albicans assessed as inhibition of fungal growth incubated for 72 hrs by agar dilution method. Type of test: functional.
Another test deals with Saccharomyces cerevisiae. Briefly: Antifungal activity against Saccharomyces cerevisiae assessed as inhibition of fungal growth incubated for 72 hrs by agar dilution method. The class given is functional.
The test system of the next test is Fusarium oxysporum. Briefly: Antifungal activity against Fusarium oxysporum assessed as inhibition of fungal growth incubated for 72 hrs by agar dilution method. The class given is functional.
The target of another test is DNA gyrase subunit B (Staphylococcus aureus, UniProt P0A0K8). Briefly: Inhibition of Staphylococcus aureus DNA gyrase subunit B ATPase activity using relaxed pNO1 plasmid as substrate incubated for 30 mins by microplate reader analysis.
The target of test [6] is DNA topoisomerase 4 subunit B (Staphylococcus aureus, UniProt P0C1S7). Briefly: Inhibition of Staphylococcus aureus DNA topoisomerase 4 subunit B ATPase activity using relaxed pNO1 plasmid as substrate incubated for 30 mins by microplate reader analysis.
The target of the next test is Dihydrofolate reductase (Staphylococcus aureus, UniProt P0A017). Briefly: Inhibition of Staphylococcus aureus dihydrofolate reductase using dihydrofolate as substrate in presence of NADPH by microplate reader analysis.
The test system of test [7] is Mycobacterium tuberculosis. Briefly: Antitubercular activity against Mycobacterium tuberculosis H37Rv assessed as inhibition of bacterial growth incubated for 24 hrs by two-fold dilution method. Type of test: functional.
The test system of test [8] is Staphylococcus aureus. Briefly: Antibacterial activity against Staphylococcus aureus assessed as inhibition of bacterial growth incubated for 16 to 18 hrs by serial dilution method. Type of test: functional. Particulars: time 16-18 hrs.
For test [9], the system named is Escherichia coli. Briefly: Antibacterial activity against Escherichia coli assessed as inhibition of bacterial growth incubated for 16 to 18 hrs by serial dilution method. Particulars: time 16-18 hrs. Type of test: functional.
The subject of test [10] is Candida albicans. Briefly: Antifungal activity against Candida albicans assessed as inhibition of fungal growth incubated for 16 to 18 hrs by serial dilution method. The following applies: time 16-18 hrs. Type of test: functional.
The subject of test [11] is Aspergillus flavus. Briefly: Antifungal activity against Aspergillus flavus assessed as inhibition of fungal growth incubated for 16 to 18 hrs by serial dilution method. The following applies: time 16-18 hrs. Type of test: functional.
Test [12] deals with Candida albicans. Briefly: Antifungal activity against Candida albicans assessed as inhibition of fungal growth incubated for 20 hrs by macro-broth dilution method. The class given is functional.

Sequence of DNA gyrase subunit B (P0A0K8 whole entry): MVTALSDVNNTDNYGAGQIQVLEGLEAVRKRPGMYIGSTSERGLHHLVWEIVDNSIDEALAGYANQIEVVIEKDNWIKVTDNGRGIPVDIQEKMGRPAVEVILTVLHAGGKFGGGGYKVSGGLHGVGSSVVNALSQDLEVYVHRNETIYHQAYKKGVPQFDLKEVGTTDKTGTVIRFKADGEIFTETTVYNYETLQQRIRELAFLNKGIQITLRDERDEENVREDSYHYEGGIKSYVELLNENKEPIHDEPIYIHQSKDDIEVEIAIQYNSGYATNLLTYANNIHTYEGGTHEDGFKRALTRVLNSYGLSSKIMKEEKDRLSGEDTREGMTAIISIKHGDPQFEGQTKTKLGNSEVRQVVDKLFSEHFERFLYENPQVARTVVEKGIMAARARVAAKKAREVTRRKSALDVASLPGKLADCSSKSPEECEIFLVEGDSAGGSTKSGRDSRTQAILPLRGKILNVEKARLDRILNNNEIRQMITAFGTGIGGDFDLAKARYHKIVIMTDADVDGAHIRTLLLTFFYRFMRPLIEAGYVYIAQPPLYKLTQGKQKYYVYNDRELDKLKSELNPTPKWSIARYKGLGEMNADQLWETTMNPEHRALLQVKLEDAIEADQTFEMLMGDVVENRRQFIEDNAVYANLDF
Sequence of DNA topoisomerase 4 subunit B (P0C1S7 whole entry): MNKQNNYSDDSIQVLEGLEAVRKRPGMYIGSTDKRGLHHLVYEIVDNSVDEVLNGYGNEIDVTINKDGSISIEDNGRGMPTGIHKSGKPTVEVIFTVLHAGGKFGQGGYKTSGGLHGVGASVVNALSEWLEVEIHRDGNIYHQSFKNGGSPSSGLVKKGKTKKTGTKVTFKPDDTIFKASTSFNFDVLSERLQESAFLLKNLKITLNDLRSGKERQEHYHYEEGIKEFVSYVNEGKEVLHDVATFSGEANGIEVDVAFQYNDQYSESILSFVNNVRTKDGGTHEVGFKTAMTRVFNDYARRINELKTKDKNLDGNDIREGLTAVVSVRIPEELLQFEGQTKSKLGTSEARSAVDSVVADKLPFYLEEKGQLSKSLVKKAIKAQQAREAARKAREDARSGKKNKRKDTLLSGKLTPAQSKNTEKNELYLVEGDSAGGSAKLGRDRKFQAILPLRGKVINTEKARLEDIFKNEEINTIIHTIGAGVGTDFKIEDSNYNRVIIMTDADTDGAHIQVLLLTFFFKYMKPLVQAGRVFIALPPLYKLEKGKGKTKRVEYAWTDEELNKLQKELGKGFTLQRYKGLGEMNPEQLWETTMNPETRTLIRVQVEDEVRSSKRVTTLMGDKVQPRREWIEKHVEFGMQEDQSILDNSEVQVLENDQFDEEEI
Sequence of Dihydrofolate reductase (P0A017 whole entry): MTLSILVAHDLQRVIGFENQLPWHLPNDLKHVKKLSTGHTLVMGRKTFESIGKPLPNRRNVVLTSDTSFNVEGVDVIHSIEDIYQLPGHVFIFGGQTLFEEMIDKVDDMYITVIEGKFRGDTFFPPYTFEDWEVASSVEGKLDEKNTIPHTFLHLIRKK

On to `COc1ccc(/C(=C/C(=O)N2CCOCC2)c2ccc(Cl)cc2)cc1OC`, for which the EC50 (usually the concentration at which the effect is half-maximal) in the test with Phytophthora infestans turned out to be 5.53 µg/mL (≈ 14.3 µM).

Regarding `Cc1ccc(S(=O)(=O)NC(=S)Nc2nnc(CC(C)C)s2)cc1`, the minimal inhibitory concentration (MIC) (commonly the lowest concentration found to suppress growth) with Bacillus subtilis is 0.78 µg/mL (≈ 2.11 µM); in the test on Clostridioides difficile, 3.12 µg/mL (≈ 8.43 µM); with Staphylococcus aureus [1] it was 100 µg/mL (≈ 270 µM); in [2] it was 12.5 µg/mL (≈ 33.7 µM); in the test with Streptococcus pneumoniae, 0.78 µg/mL (≈ 2.11 µM); in the test on Escherichia coli [3], 6.25 µg/mL (≈ 16.9 µM). The MIC turned out to be 400 µg/mL (≈ 1080 µM) with Klebsiella pneumoniae; 6.25 µg/mL (≈ 16.9 µM) in the test on Pseudomonas aeruginosa; 50 µg/mL (≈ 135 µM) with Salmonella typhimurium; 50 µg/mL (≈ 135 µM) with Aspergillus niger; 0.78 µg/mL (≈ 2.11 µM) in the test with Aspergillus flavus [4]; 3.12 µg/mL (≈ 8.43 µM) in the test on Candida albicans [5]. Moreover, the values for the MIC with Saccharomyces cerevisiae and in the test on Fusarium oxysporum were 3.12 µg/mL (≈ 8.43 µM) and 1.56 µg/mL (≈ 4.21 µM), respectively.

`CCCc1nnc(NC(=S)NS(=O)(=O)c2ccc(C)cc2)s1`: the MIC in the test on Bacillus subtilis amounted to 3.12 µg/mL (≈ 8.77 µM); with Clostridioides difficile, 25 µg/mL (≈ 70.1 µM); in the test on Staphylococcus aureus [1], 50 µg/mL (≈ 140 µM); in test [2] it was 25 µg/mL (≈ 70.1 µM); in the test on Streptococcus pneumoniae it was 1.56 µg/mL (≈ 4.38 µM); in the test with Escherichia coli [3], 12.5 µg/mL (≈ 35.1 µM). For the same molecule, the MIC with Klebsiella pneumoniae worked out at 25 µg/mL (≈ 70.1 µM); with Pseudomonas aeruginosa it was 100 µg/mL (≈ 281 µM); in the test with Salmonella typhimurium, 25 µg/mL (≈ 70.1 µM); in the test with Aspergillus niger, 12.5 µg/mL (≈ 35.1 µM); with Aspergillus flavus [4], 1.56 µg/mL (≈ 4.38 µM); in the test with Candida albicans [5] it was 3.12 µg/mL (≈ 8.77 µM). Also, the results for the MIC in the test with Saccharomyces cerevisiae and with Fusarium oxysporum were 1.56 µg/mL (≈ 4.38 µM) and 200 µg/mL (≈ 561 µM), respectively.

Regarding `CCCCc1nnc(NC(=S)NS(=O)(=O)c2ccc(C)cc2)s1`, the MIC (in the test on Bacillus subtilis; with Clostridioides difficile; in the test on Staphylococcus aureus [1]; in [2]; in the test with Streptococcus pneumoniae; in the test on Escherichia coli [3]) was 400 µg/mL (≈ 1080 µM) each time. The minimum inhibitory concentration (MIC) in the test on Klebsiella pneumoniae, in the test with Pseudomonas aeruginosa, with Salmonella typhimurium, in the test on Aspergillus niger, in the test with Aspergillus flavus [4] and in the test with Candida albicans [5] was 400 µg/mL (≈ 1080 µM) each time. Further, the minimum inhibitory concentration (MIC) in the test on Saccharomyces cerevisiae and in the test with Fusarium oxysporum was 400 µg/mL (≈ 1080 µM) in each case.

For `CCc1nnc(NC(=S)NS(=O)(=O)c2ccc(C)cc2)s1`, the MIC came to 1.56 µg/mL (≈ 4.56 µM) in the test on Bacillus subtilis; 0.78 µg/mL (≈ 2.28 µM) in the test on Clostridioides difficile; 6.25 µg/mL (≈ 18.2 µM) in the test with Staphylococcus aureus [1]; 50 µg/mL (≈ 146 µM) in test [2]; 3.12 µg/mL (≈ 9.12 µM) in the test on Streptococcus pneumoniae; 200 µg/mL (≈ 584 µM) in the test with Escherichia coli [3]. Also, the MIC in the test with Klebsiella pneumoniae amounted to 12.5 µg/mL (≈ 36.5 µM); in the test on Pseudomonas aeruginosa, 50 µg/mL (≈ 146 µM); in the test with Salmonella typhimurium, 3.12 µg/mL (≈ 9.12 µM); with Aspergillus niger it was 100 µg/mL (≈ 292 µM); in the test with Aspergillus flavus [4], 6.25 µg/mL (≈ 18.2 µM); with Candida albicans [5], 1.56 µg/mL (≈ 4.56 µM). Besides, the MIC worked out at 25 µg/mL (≈ 73 µM) with Saccharomyces cerevisiae and 6.25 µg/mL (≈ 18.2 µM) with Fusarium oxysporum. The figures for the IC50 (at DNA gyrase subunit B; in test [6]; on Dihydrofolate reductase) were 3170 nM, 78.1 µM and 470 nM, respectively.

For `FC(F)(F)c1cc(NC(=S)Nc2nnc(-c3ccc(Cl)cc3)s2)ccc1Cl`, in test [7], the MIC was 10.9 µM (≈ 4.9 µg/mL).

Take `S=C(/N=C/c1cc2cc(Cl)ccc2nc1Cl)Nc1nnc(-c2ccc(Cl)cc2)s1`: the MIC with Staphylococcus aureus [8], in the test on Escherichia coli [9], in the test on Candida albicans [10] and in the test on Aspergillus flavus [11] was 3.12 µg/mL (≈ 6.52 µM) each time.

Consider `CC(=O)OC[C@H]1O[C@@H](Sc2nnc(NC(=O)c3ccc(F)cc3)s2)[C@@H](OC(C)=O)[C@H](OC(C)=O)[C@@H]1OC(C)=O`, for which, in the test with Phytophthora infestans, the EC50 worked out at 3.43 µg/mL (≈ 5.86 µM).

On to `Cc1ccc(S(=O)(=O)NC(=S)Nc2nnc(C)s2)cc1`, for which the MIC in the test with Bacillus subtilis is 6.25 µg/mL (≈ 19 µM); with Clostridioides difficile it was 6.25 µg/mL (≈ 19 µM); with Staphylococcus aureus [1], 25 µg/mL (≈ 76.1 µM); in test [2], 100 µg/mL (≈ 304 µM); in the test on Streptococcus pneumoniae, 12.5 µg/mL (≈ 38.1 µM); in the test on Escherichia coli [3], 50 µg/mL (≈ 152 µM). Further, the MIC with Klebsiella pneumoniae was determined as 6.25 µg/mL (≈ 19 µM); with Pseudomonas aeruginosa it was 1.56 µg/mL (≈ 4.75 µM); in the test with Salmonella typhimurium it was 12.5 µg/mL (≈ 38.1 µM); in the test on Aspergillus niger, 50 µg/mL (≈ 152 µM); in the test with Aspergillus flavus [4], 25 µg/mL (≈ 76.1 µM); in the test with Candida albicans [5], 0.78 µg/mL (≈ 2.37 µM). Also, the MIC in the test on Saccharomyces cerevisiae worked out at 6.25 µg/mL (≈ 19 µM); with Fusarium oxysporum, 25 µg/mL (≈ 76.1 µM).

Take `C=CCNc1nnc(-c2ccccc2OCc2ccc(Cl)cc2)s1`: in the test with Candida albicans [12], the MIC was 0.08 µg/mL (≈ 0.224 µM).

In the case of `Cc1ccc(S(=O)(=O)NC(=S)Nc2nncs2)cc1`, the MIC with Bacillus subtilis was 12.5 µg/mL (≈ 39.8 µM); with Clostridioides difficile, 200 µg/mL (≈ 636 µM); in the test with Staphylococcus aureus [1], 3.12 µg/mL (≈ 9.94 µM); in [2], 3.12 µg/mL (≈ 9.94 µM); in the test on Streptococcus pneumoniae it was 12.5 µg/mL (≈ 39.8 µM); with Escherichia coli [3], 1.56 µg/mL (≈ 4.96 µM). In addition, the MIC in the test on Klebsiella pneumoniae turned out to be 50 µg/mL (≈ 159 µM); in the test on Pseudomonas aeruginosa, 25 µg/mL (≈ 79.5 µM); in the test on Salmonella typhimurium, 1.56 µg/mL (≈ 4.96 µM); with Aspergillus niger, 200 µg/mL (≈ 636 µM); in the test on Aspergillus flavus [4] it was 50 µg/mL (≈ 159 µM); in the test on Candida albicans [5] it was 25 µg/mL (≈ 79.5 µM). Further, the results for the MIC in the test with Saccharomyces cerevisiae and in the test with Fusarium oxysporum were 12.5 µg/mL (≈ 39.8 µM) and 25 µg/mL (≈ 79.5 µM), respectively. Besides, the IC50 (in general, the concentration that inhibits the measured activity by half) at DNA gyrase subunit B stood at 1560 nM; in [6], 67.6 µM; at Dihydrofolate reductase, 370 nM.
